The structures appear in SMILES notation. Structures can show the parent of a compound that is named as a salt. Marks after values point to notes of the source that are not given here.

For data set [1], the system named is wild-type zebrafish larvae. The experiment in a line: General locomotor assay in zebrafish larvae (locomotor activity, repetitive behaviors). The format is in vivo, Danio rerio.
Data set [2] deals with T1, M1 muscarinic receptors expressed in CHO cells (Homo sapiens, UniProt P11229).
T1 construct: expressed in transfected cells; host or cells: CHO (CHO-hM1, stably transfected)
T1 sequence (P11229 1-460): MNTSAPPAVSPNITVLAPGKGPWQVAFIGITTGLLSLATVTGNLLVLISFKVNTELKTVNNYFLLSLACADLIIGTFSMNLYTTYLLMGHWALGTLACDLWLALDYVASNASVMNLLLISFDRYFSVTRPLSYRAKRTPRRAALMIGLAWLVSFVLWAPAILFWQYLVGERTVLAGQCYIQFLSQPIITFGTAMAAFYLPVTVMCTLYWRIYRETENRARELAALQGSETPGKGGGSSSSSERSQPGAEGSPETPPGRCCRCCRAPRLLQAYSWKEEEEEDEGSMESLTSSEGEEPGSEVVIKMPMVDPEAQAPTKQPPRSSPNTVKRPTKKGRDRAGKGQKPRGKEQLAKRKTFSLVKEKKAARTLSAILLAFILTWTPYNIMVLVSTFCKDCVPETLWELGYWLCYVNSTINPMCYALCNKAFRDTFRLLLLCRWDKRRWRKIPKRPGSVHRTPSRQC
The experiment in a line: Full ACh dose-response curves of [3H]AA release fitted to the allosteric operational model. The format is cell-based. Conditions: for Effect on ACh potency and efficacy in full ACh dose-response curves (in words): modulator 10 μM. The procedure:
Measurement of [^3H]AA release was performed. Stably transfected CHO-hM1 or CHO-hM3 cells were seeded on 24-well plates (Greiner Bio-One GmbH, Frickenhausen, Germany) at a density of 5.0×10^4 cells/well in 0.5 ml of F-12 medium. Cells were incubated until they attached (approximately 3 h), followed by the addition of [^3H]AA to a final concentration of 0.05 μCi of [^3H]AA per well. The cells were then grown for 16 to 20 h before the assay was performed. [^3H]AA release was measured in Eagle's basal medium with 20 mM HEPES and 2 mg/ml fatty acid-free bovine serum albumin (EM-BSA). Cells were rinsed twice with EM-BSA, followed by the addition of EM-BSA media containing experimental agents and incubated for 1 h at 37° C. The assay was terminated by aspiration of the media, and the amount of [^3H]AA released was determined by liquid scintillation counting (Beckman-Coulter LS6500).
Tabulated [^3H]AA release data are represented as a fraction of maximal release in the presence of 100 μM ACh or as the fraction of release elicited by the appropriate concentration of ACh alone, as indicated dose-response curves were normalized to the maximal response of ACh without allosteric ligand. Some response curves were analyzed using the empirical four-parameter equation: […]
where X is the log of the concentration of the ligand used, Y is the amount of response, C50 is the concentration of the ligand that produces 50% of the maximal effect, Top and Bottom are the top and bottom plateaus of the curve, respectively, and n is related to the Hill slope for the curve. In some cases, families of response curves were analyzed according to the allosteric operational model:
where EM is the maximal response; A is the concentration of ACh; B is the concentration of the allosteric ligand; τA and τB represent the intrinsic efficacies of A and B, respectively; KA and KB are the equilibrium dissociation constants of A and B, respectively; and α and β represent the cooperativities between A and B in terms of binding and activation, respectively. Curve-fitting was carried out with GraphPad Prism, version 5.0 or 6.0 (San Diego CA).

In data set [3] the target is T1, M1 muscarinic receptors expressed in CHO cells. The experiment in a line: [3H]-arachidonic acid release screen with and without ACh and modulator. The data set is classed as cell-based. The conditions noted are these: for Ratio of response of ACh with modulator to response of ACh alone, 0.1 μM ACh / Ratio of response of ACh with modulator to response of ACh alone, 100 μM ACh / Stimulation of [3H]AA release, No ACh (fraction of stimulation above the control): 10 μM modulator, Table 1; for Modulation of ACh activity (in words): [3H]AA release.

For data set [4], the system named is wild-type zebrafish larvae. The experiment in a line: Maximum tolerated concentration (MTC) determination in zebrafish larvae. Conditions: for Maximum Tolerated Concentration: after 24-hour exposure, Table 3. The data set is classed as in vivo, Danio rerio.
[5] abbreviates: best-fit parameter, allosteric operational model, with ACh.
Where [6] appears, read: Table 3, test concentration not given, N = 12.

`COc1c(I)cc(CN2C(=O)C(=O)c3ccccc32)cc1I` [Compound 8a, 1-(3,5-diiodo-4-methoxybenzyl)indoline-2,3-dione]: the “Concentration with significant effects on locomotor activity and repetitive behaviors” value in data set [1] (compared with BQCA) turned out to be 1 µM. Besides, the “Intrinsic Efficacy-B, τB” value in data set [2] (best-fit parameter, allosteric operational model, Em set to 2.0) is on record as 0.174 ± 0.0289. Further, in data set [2] (setting [5]), the “Activation cooperativity, A-B, β” value was found to be 3.26 ± 0.431 and the “Binding cooperativity, A-B, α” value amounted to 0.689 ± 0.241. Moreover, the “Affinity-B, KB” value in data set [2] (best-fit parameter, values given are logarithms (cf. logKA in footnote)) is −6.26 ± 0.152. The “Effect on ACh potency and efficacy in full ACh dose-response curves (in words)” value in data set [2] was “dramatically enhanced ACh efficacy”. Besides, in data set [2] (read-out: affinity for M1 muscarinic receptors (KB)), the Kb is 0.589 µM. In addition, in data set [3], the “Ratio of response of ACh with modulator to response of ACh alone, 0.1 μM ACh” value came out at 2.64 ± 0.10; the “Ratio of response of ACh with modulator to response of ACh alone, 100 μM ACh” value came to 1.62 ± 0.06; the “Stimulation of [3H]AA release, No ACh (fraction of stimulation above the control)” value is given as 0.24 ± 0.04. Also, the “Modulation of ACh activity (in words)” value in data set [3] (modulator 10 μM) is “significant enhancement of ACh activity”. Further, in data set [3] (modulator 10 μM, without ACh), the “Intrinsic agonist activity (in words)” value is given as “lacked intrinsic activity at the 10 μM concentration”. Also, the “Maximum Tolerated Concentration” value in data set [4] was 30 µM. For the same compound, in data set [4] (concentrations up to 30 μM, the highest concentration tested), the “Signs of toxicity (in words)” value is “did not produce any signs of toxicity”.
Take `CCN(CC)CCOc1c(Br)cc(CN2C(=O)C(=O)c3ccccc32)cc1Br` [Compound 8l, 1-(3,5-dibromo-4-(2-(diethylamino)ethoxy)benzyl)indoline-2,3-dione hydrochloride]: in data set [1] (setting [6]), the “Angular Velocity” value is 184.7 ± 17.0*** % of control, the “Total Distance Moved” value is listed as 33.5 ± 4.4** % of control and the “Variance of Turn Angle” value is recorded as 166.1 ± 12.5*** % of control. Besides, the “Effect on ACh potency and efficacy in full ACh dose-response curves (in words)” value in data set [2] is given as “decreased ACh potency with little impact on ACh efficacy”. In data set [3], the “Ratio of response of ACh with modulator to response of ACh alone, 0.1 μM ACh” value is given as 0.19 ± 0.06; the “Ratio of response of ACh with modulator to response of ACh alone, 100 μM ACh” value was 0.87 ± 0.06; the “Stimulation of [3H]AA release, No ACh (fraction of stimulation above the control)” value is reported as 0.04 ± 0.00. Further, the “Modulation of ACh activity (in words)” value in data set [3] (modulator 10 μM) was “results only in a decrease in ACh activity”. Besides, the “Maximum Tolerated Concentration” value in data set [4] stood at 10 µM.

(Values after patent US20260109674A1, “ALLOSTERIC MODULATION OF MUSCARINIC ACETYLCHOLINE RECEPTOR EFFICACY” (The University of Toledo, priority 2022, published 2026).)
